# Entries after “also recorded” stand apart in the source; their conditions may differ.
# Key:
# Zmpste24−/− mice [1] = assay: Micro-CT analysis of bone in progeroid Z24−/− mice given senolytic drugs; type: in vivo, mouse
# Experimental: (§1) Adult progeroid Z24−/− mice were administered senolytic drugs via oral gavage (150 μl volume) starting at 2.5 to 3.0 months of age. D/Q (5 mg/kg: 50 mg/kg in 10% PEG400/5.0% DMSO) was given as a single dose at 2.5 months or multi-dose at 2.5, 3.0, 3.5, 4.0, 4.5, and 5.0 months. Both single and multi-dose DQ mice were sacrificed at 5 months. FIS (100 mg/kg in 90% PEG400/10.0% ethanol) treated mice were given a total of 4 weekly doses of drug starting at 3.0 months of age, then sacrificed at 4.0 months of age. For 17-DMAG treatments (10 mg/kg, 1% DMSO-PBS), mice were treated 3 times per week starting at 2 months of age then sacrificed at 4 months of age.
# For Fisetin treatments, mice were imaged using the explore Locus Utra Pre-Clinical CT Scanner (GE Healthcare, London, ON) through the pre-Clinical CT Core Facility with the following acquisition settings: 140 kVp, 22 mA with 16 s rotation/exposure. Non-cardiac gated CT images were acquired at all-time points. Simple back projections were obtained from the […] image reconstruction and exported as DICOM images. Image analysis was performed using the OsiriX software. Qualitative analysis of the bones was performed in 2D and 3D reconstructions using OsiriX. MicroView imaging software was also used for the quantitative analysis of the bone mineral density.
# (§2) Z24−/−mice were treated with Fisetin weekly for 4 weeks (100 mg/kg) starting at 3 months of age then sacrificed at 4 months of age. 4 months was chosen as a sacrifice time (versus 5 months) given the more advanced pathology that occurred at 5 months, a time when therapies might have negligible effects like seen in D+Q treated animals.
# mice OA models = conditions: cited from earlier work
# Zmpste24−/− mice [2] = assay: Transcript levels of senescence marker and SASP factors in tissues of Z24−/− mice; type: in vivo, mouse; conditions: 100 mg/kg weekly
# Experimental: as §1, §2
# C12FDG+ T-Cells = assay: Bright and dim C12FDG+ T-cells in five patients treated with Fisetin; type: in vivo, human
# Experimental: A certified phlebotomist used a 19-gauge butterfly needle to perform a standard venipuncture from the antecubital (AC) area, forearm or hand vein. Approximately 35 mL of blood was drawn into one 30 cc syringe (with ACD-A) and one 5 cc (without ACD-A) syringe. […] For total PBMCs and enriched T-Cells, SepMate™ tubes (Stem Cell Technologies) were used following manufactures protocol with Lymphoprep™ (Stem Cell Technologies) gradient centrifugation. Specifically, in separate tubes, CD3+ T-Cells were enriched using the RosetteSep™ commercial kit following manufactures instructions (Stem Cell Technologies #15021). A portion of cells (enriched T-cells and total PBMCs) were stained with 30 μM C12FDG in general culture media supplemented with 10% FBS and analyzed with flow cytometry (Guava EasyCyte, Luminex). To assess the percent, number, and concentration (cell/ml) of senescent CD3+ T-cells and PBMCs, settings were adjusted first using an unstained control (i.e., cells not treated with C12FDG). First, thresholds were set for FSC and SSC to catch cellular events. Next the green channel gain controls were set so that the background events fall between the 1st and second decade. […] Samples were ran in triplicate with water-only runs every 5 wells. Five patients with an age range from 56-77 years were treated with Fisetin at 100 mg/day for 30-45 days.
# [3] = tested on: senescence-associated heterochromatin foci (SAHF) in ADSCs; assay: Immunofluorescence of senescence-associated heterochromatin foci (H3K9, γ-H2AX) in ADSCs; type: cell-based, human; conditions: 50 μM Fisetin
# Experimental: Specifically, the cells were maintained in T-75 culture flasks using normal growth media (DMEM:F-12 with 10% FBS and 1% penicillin/streptomycin). At 70-90% confluency, the cells were passaged and reseeded in the flasks at a 1:4 dilution. At their respective testing passage number, cells were plated into chamber slides for SAHF staining at a density of 5,000 cells/cm^2. Cells were seeded in triplicate for each group and incubated to adhere overnight. The following day, cells were fixed with cold 4% paraformaldehyde and stained with the H2AX antibody using a 1:150 dilution and the H3K9 antibody using a 1:250 dilution. DAPI was also used to stain the nuclei. Five images per well and three wells per group were imaged using the Nikon Eclipse Ni-U microscope. Cells positive for the H2AX and H3K9 antibodies were quantified using the ImageJ software.
# Each cell type was given 3 replicate wells, and each well was imaged 6 times, for a total of 18 images per group. Using an Image J program, the number of cells positive for each marker was quantified.
# To determine Fisetin's senolytic ability in vitro, based on the data from the preceding example, the 50 μM Fisetin concentration was used to treat YF and OF cells. Senescent cells were quantified by immunofluorescence using ? -H2AX and H3K9. Similarly, YM and OM cells were quantified using C12FDG for flow cytometry. […]
# [4] = tested on: senescent ADSCs (β-galactosidase, C12FDG); assay: C12FDG staining of senescence-associated β-galactosidase with flow cytometry in culture-expanded ADSCs; type: cell-based, human
# Experimental: Cells were treated with 100 nM of bafilomycin A1 for 1 hour at 37° C. and 5% CO2. Next, 33 μM C12FDG was added and incubated for 2 hours. Thus, cells were stained with the fluorescent senescence-associated marker C12FDG, collected, and tested for senescence using flow cytometry after 50 μM Fisetin treatment. 3 replicates were used per treatment. The InCyte software was used, and fluorescent gating was determined using unstained control cells.
# To determine Fisetin's senolytic ability in vitro, based on the data from the preceding example, the 50 μM Fisetin concentration was used to treat YF and OF cells. Senescent cells were quantified by immunofluorescence using ? -H2AX and H3K9. Similarly, YM and OM cells were quantified using C12FDG for flow cytometry. C12FDG reacts with beta-galactosidase, a biomarker for senescence, to produce a fluorogenic substrate to be detected and quantified by flow cytometry.
# Cells were seeded in triplicate for each group using previously described culture methods and seeding densities. After adhering overnight, the media was changed. […] After culturing in normal growth media for another 24 hours, the media was collected for SASP quantification or the cells were processed for C12FDG or SAHF staining, as described in the preceding example.
# senescent CD3+ T-cells = assay: Senescent peripheral blood CD3+ T-cells before and after oral Fisetin, C12FDG flow cytometry (person); type: in vivo, human; conditions: CD3+ cells after Fisetin treatment, 100 mg per day for 45 days
# Experimental: Whole blood was collected from a subject into 50 ml Syringe containing ACD-A and set on a rocker. SepMate tubes (Stem Cell Technologies) were prepared with 15 ml Lymphoprep in a sterile environment. 10 ml whole blood were aliquoted into 50 ml conical tubes. 500 μl (50 μl/ml) RosetteSep (Stem Cell Technologies) was added to 10 mL sample of blood. For other blood samples, total PBMCs were collected as described below without T-cell enrichment for comparison. The mixture was incubated 10 min at room temperature (RT). An equal volume dilution medium (DM-sterile PBS and 2% FBS) was added to the sample and mixed gently. The diluted sample was slowly added to the SepMate tube containing Lymphoprep density gradient medium. The mixture was centrifuged at 1200×g for 10 minutes, brake on. The enriched cells were collected by pouring supernatant into a new tube. […]
# Senescent cells were treated with Fisetin and then further characterized using flow cytometry (as described in Example 4, above). Peripheral Blood CD3+ T-cells from a person before & after Fisetin treatment (100 mg per day for 45 days) were evaluated for senescence and for senescent cell populations. Before treatment, the subject measured about 29% senescent cells, and after treatment, the subject measured about 4% senescent cells (data not shown).
# low passage (<p4) ADSCs = assay: CellTiter 96 AQueous Cell Proliferation Assay (cell toxicity); type: cell-based, human
# Experimental: Banked ADSCs isolated from person three, person four, person two, and person one were purchased and cultured with normal growth media (DMEM/F:12, 10% FBS, and 1% penicillin/streptomycin).
# Fisetin was added to growth media and treated on cells for 24 hours. Following treatment, the media was changed to normal growth media for 24 hours before being used for cell toxicity, immunofluorescence, or flow cytometry.
# The CellTiter 96® AQueous Cell Proliferation Assay was used to determine the toxicity of 50 μM, 25 μM, and 1 μM Fisetin on low passage (<p4) cells. Cells were seeded at 40,000 cells/well in a 12-well plate. After adhering overnight, the cells were treated with 50 μM, 25 μM, and 1 μM of Fisetin for 24 hours. After treatment, the media was changed back to normal growth media for another 24 hours. The cells were then treated with the CellTiter 96 AQueous Cell Proliferation Assay following the manufacturer's protocol. Values are relative to untreated, control cells.
# [5] = tested on: SASP factors IL-6, IL-8, MCP-1; assay: SASP factor quantification in ADSC culture media (Milliplex); type: cell-based, human; conditions: after Fisetin treatment, media 24 hours
# Experimental: For SASP detection, the media were collected after incubating with the cells for 24 hours, centrifuged at 2,000×g for ten minutes, transferred to new microcentrifuge tubes, and stored at −80° C. until testing. The Human Adipocyte Milliplex kit using the EMD Millipore Milliplex instrument was used to quantify the SASPs.
# Cells were seeded in triplicate for each group using previously described culture methods and seeding densities. After adhering overnight, the media was changed. For the untreated group normal ADSC growth media was used (DMEM:F-12 with 10% FBS and 1% penicillin/streptomycin), and for the treated group 50 μM Fisetin was added. Cells were treated for 24-hours, after which the media was changed back to normal growth media for all groups. After culturing in normal growth media for another 24 hours, the media was collected for SASP quantification or the cells were processed for C12FDG or SAHF staining, as described in the preceding example.
# Within the R1 region of FIGS. 4B-4D, cells positive for C12FDG are noted by their respective peaks. […] In all groups, a decrease was indicated. […] 3 replicates were used for each treatment. (FIG. 6).
# [6] = Losartan administration; cited from earlier work
# [7] = treated versus untreated Z24−/− mice
smiles,measurement,setting,value
"O=c1c(O)c(-c2ccc(O)c(O)c2)oc2cc(O)ccc12 [Fisetin, 2-(3,4-dihydroxyphenyl)-3,7-dihydroxychromen-4-one]",bone density loss,"Zmpste24−/− mice [1]; 100 mg/kg weekly for 4 weeks from 3 months of age, micro-CT",significantly attenuate
same,protective effects in bone,"Zmpste24−/− mice [1]; Z24−/− mice, oral gavage",effective
same,Hounsfield unit (HU) intensity,Zmpste24−/− mice [1]; [7],Significant higher scores
same,bone mineral density (BMD),Zmpste24−/− mice [1]; [7],Significant higher scores
same,specific bone surface (BS/BV),Zmpste24−/− mice [1]; [7],Significant higher scores
same,cartilage destruction,mice OA models,decreased
same,subchondral bone plate thickness,mice OA models,decreased
same,synovitis,mice OA models,relieved
same,transcript levels of IL-6,Zmpste24−/− mice [2],reduced
same,transcript levels of TGF-β,Zmpste24−/− mice [2],reduced
same,transcript levels of p16INK4a,Zmpste24−/− mice [2],reduced
same,"reduction in the percent of C12FDG+ cells (dim, early stage)",C12FDG+ T-Cells; 100 mg/day for 30-45 days,1-2 fold
same,"bright cells, mean","C12FDG+ T-Cells; P19, treated/post-treated",1.15%
same,"dim cells, mean","C12FDG+ T-Cells; P19, treated/post-treated",26.70%
same,"bright cells, mean","C12FDG+ T-Cells; P50, treated/post-treated",0.60%
same,"dim cells, mean","C12FDG+ T-Cells; P50, treated/post-treated",27.55%
same,reduction in bright C12FDG+ T-cells,"C12FDG+ T-Cells; patients with high baseline bright cells, 100 mg/day for 30-45 days",10-20 fold
same,number of cells positive for H3K9,"[3]; OF and YF cells, passages 4 and 18",significantly reduced in all groups
same,γ-H2AX positive cells,"[3]; low passage OF, low passage YF, high passage YF cells",reduced
same,% cells positive for C12FDG (senescence),"[4]; 50 μM Fisetin, 24 hours, passages 6, 8, 10",significantly reduced; also recorded: reduced at every passage
same,count of the peak representing senescent cells (histogram),[4]; cells treated with 50 μM Fisetin,about 20
same,Senescent cell concentration,senescent CD3+ T-cells,7397 +/− 3191 cells/mL
same,Total senescent cells,senescent CD3+ T-cells,191 +/− 73
same,toxicity to the health of low passage ADSCs,low passage (<p4) ADSCs; 50 μM,not toxic
same,percentage of viable cells among treatments,"low passage (<p4) ADSCs; 50 μM, 25 μM, 1 μM, YF, OF, YM, OM, relative to untreated control cells",no significant difference
same,toxicity to ADSCs,"low passage (<p4) ADSCs; 1-50 μM, 24 hours treatment",non-toxic
same,ADSC viability and proliferation,low passage (<p4) ADSCs; Fisetin exposure,not hindered
same,IL-6 concentration,[5],decrease
same,IL-8 concentration,[5],decrease
same,MCP-1 concentration,[5],decrease
CCCCc1nc(Cl)c(CO)n1Cc1ccc(-c2ccccc2-c2nn[nH]n2)cc1 [Losartan],microfracture for cartilage repair,[6],enhance
